Measured values: patent publication US20120219615A1, “Therapeutic Use of a TLR Agonist and Combination Therapy” (The Trustees of the University of Pennsylvania, priority 2010, published 2012)
Read-outs that look alike come from different tables or passages of the source.

Columns and labels:
[1] = Phase I clinical study: pharmacokinetics after subcutaneous administration; format: in vivo; conditions: human; for DN AUC(0-∞) / DN Cmax: dose normalized; for DN AUC(0-∞) / DN Cmax / AUC(0-inf) / Cmax / half-life / Tmax: first dose; for AUC(0-inf) / Cmax / half-life / Tmax: plasma, sc
Method: Study Procedures: VTX-2337 was administered weekly via subcutaneous injection on Days 1, 8, and 15 of a 28-day dosing cycle for two cycles. Using a modified Fibonacci dose-escalation scheme, successive cohorts received doses ranging from 0.1 mg/m^2 to 3.9 mg/m^2 of VTX-2337. Plasma samples were collected for pharmacokinetic analysis after the first dose of the first treatment cycle and for pharmacodynamic analyses after the first dose of the first and second treatment cycles.
Samples were collected at 0.5, 1, 1.5, 2, 4, 8, and 24 hours after subcutaneous administration of the first dose of VTX-2337 and plasma levels of VTX-2337 were quantified by LC-MS/MS. VTX-2337 was rapidly absorbed into systemic circulation with the mean Tmax occurring between 0.5 and 0.8 hours following dosing. […] Peak plasma levels (Cmax) and total systemic exposure both increased with increasing dose. Dose normalized (DN) values for Cmax and AUC(0-∞) were calculated.

TLR8 = target: T1, TLR8 (Homo sapiens, UniProt Q9NR97); assay: HEK293 cells transfected with TLR8 and NF-κB driven reporter gene; format: cell-based; conditions: HEK293 transfectants
T1 construct: assessed in peripheral blood mononuclear cells (PBMCs) from 15 healthy donors; endogenous in cells; host or cells: PBMCs from 15 healthy donors
T1 sequence (Q9NR97 27-1041): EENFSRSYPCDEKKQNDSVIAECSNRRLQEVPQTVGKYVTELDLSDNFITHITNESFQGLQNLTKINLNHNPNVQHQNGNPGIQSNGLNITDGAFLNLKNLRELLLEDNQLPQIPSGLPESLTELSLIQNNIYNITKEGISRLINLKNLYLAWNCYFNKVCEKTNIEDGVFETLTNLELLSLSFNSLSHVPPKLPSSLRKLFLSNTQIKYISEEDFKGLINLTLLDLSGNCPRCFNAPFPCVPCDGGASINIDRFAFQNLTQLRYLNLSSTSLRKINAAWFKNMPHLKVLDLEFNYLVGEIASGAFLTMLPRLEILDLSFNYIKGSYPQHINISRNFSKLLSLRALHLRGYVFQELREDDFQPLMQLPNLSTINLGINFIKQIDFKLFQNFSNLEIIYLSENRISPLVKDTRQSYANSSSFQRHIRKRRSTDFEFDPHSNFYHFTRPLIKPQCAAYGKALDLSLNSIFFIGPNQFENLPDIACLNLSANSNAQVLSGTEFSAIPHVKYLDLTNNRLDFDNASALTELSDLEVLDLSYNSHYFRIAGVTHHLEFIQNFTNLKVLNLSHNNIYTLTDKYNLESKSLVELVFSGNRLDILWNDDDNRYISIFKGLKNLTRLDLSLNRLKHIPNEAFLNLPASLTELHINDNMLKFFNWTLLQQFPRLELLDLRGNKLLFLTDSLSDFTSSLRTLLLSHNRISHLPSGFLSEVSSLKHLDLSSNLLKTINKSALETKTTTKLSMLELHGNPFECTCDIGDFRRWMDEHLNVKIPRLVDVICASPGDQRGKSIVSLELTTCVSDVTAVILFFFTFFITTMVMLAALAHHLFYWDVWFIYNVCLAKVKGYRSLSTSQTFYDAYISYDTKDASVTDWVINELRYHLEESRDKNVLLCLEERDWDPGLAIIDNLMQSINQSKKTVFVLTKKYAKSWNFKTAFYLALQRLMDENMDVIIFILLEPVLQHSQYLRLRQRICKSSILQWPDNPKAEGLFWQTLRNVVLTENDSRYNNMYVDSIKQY
Method: The half-maximal effective concentration (EC50) for VTX-2337 activation of TLR8 and TLR7 was assessed in peripheral blood mononuclear cells (PBMCs) from 15 healthy donors and also in HEK293 cells transfected with TLR8 or TLR7 and an NF-κB driven reporter gene. […] Also it was observed that VTX-2337 had no activity on TLR2, TLR3, TLR4, TLR5, TLR6, or TLR9 at concentrations up to 25 μM.

DN AUC(0-∞) ([1]; s.c., 0.1 mg/m^2): 31.2 (ng · hr/mL)/(mg/m^2)
DN Cmax ([1]; s.c., 0.1 mg/m^2): 15.2 (ng/ml)/(mg/m^2)
DN AUC(0-∞) ([1]; s.c., 0.2 mg/m^2): 23.7 (ng · hr/mL)/(mg/m^2)
DN Cmax ([1]; s.c., 0.2 mg/m^2): 9.9 (ng/ml)/(mg/m^2)
DN AUC(0-∞) ([1]; s.c., 0.4 mg/m^2): 27.4 (ng · hr/mL)/(mg/m^2)
DN Cmax ([1]; s.c., 0.4 mg/m^2): 16.7 (ng/ml)/(mg/m^2)
DN AUC(0-∞) ([1]; s.c., 0.8 mg/m^2): 24.0 (ng · hr/mL)/(mg/m^2)
DN Cmax ([1]; s.c., 0.8 mg/m^2): 7.4 (ng/ml)/(mg/m^2)
DN AUC(0-∞) ([1]; s.c., 1.3 mg/m^2): 22.7 (ng · hr/mL)/(mg/m^2)
DN Cmax ([1]; s.c., 1.3 mg/m^2): 8.4 (ng/ml)/(mg/m^2)
DN AUC(0-∞) ([1]; s.c., 2.0 mg/m^2): 29.6 (ng · hr/mL)/(mg/m^2)
DN Cmax ([1]; s.c., 2.0 mg/m^2): 7.3 (ng/ml)/(mg/m^2)
DN AUC(0-∞) ([1]; s.c., 2.8 mg/m^2): 28.7 (ng · hr/mL)/(mg/m^2)
DN Cmax ([1]; s.c., 2.8 mg/m^2): 7.1 (ng/ml)/(mg/m^2)
DN AUC(0-∞) ([1]; s.c., 3.9 mg/m^2): 20.8 (ng · hr/mL)/(mg/m^2)
DN Cmax ([1]; s.c., 3.9 mg/m^2): 5.9 (ng/ml)/(mg/m^2)
pharmacokinetics over the dose ranges evaluated ([1]; s.c., 0.1-3.9 mg/m^2): appeared to be linear
AUC(0-inf) ([1]; 0.1 mg/m^2 (~0.0022 mg/kg)): 3.12 ng·h/mL
Cmax ([1]; 0.1 mg/m^2 (~0.0022 mg/kg)): 1.52 ng/mL
AUC(0-inf) ([1]; 0.2 mg/m^2 (~0.0054 mg/kg)): 4.74 ng·h/mL
Cmax ([1]; 0.2 mg/m^2 (~0.0054 mg/kg)): 1.97 ng/mL
AUC(0-inf) ([1]; 0.4 mg/m^2 (~0.011 mg/kg)): 10.9 ng·h/mL
Cmax ([1]; 0.4 mg/m^2 (~0.011 mg/kg)): 6.69 ng/mL
AUC(0-inf) ([1]; 0.8 mg/m^2 (~0.022 mg/kg)): 19.2 ng·h/mL
Cmax ([1]; 0.8 mg/m^2 (~0.022 mg/kg)): 5.93 ng/mL
AUC(0-inf) ([1]; 1.3 mg/m^2 (~0.035 mg/kg)): 29.5 ng·h/mL
Cmax ([1]; 1.3 mg/m^2 (~0.035 mg/kg)): 10.9 ng/mL
AUC(0-inf) ([1]; 2.0 mg/m^2 (~0.054 mg/kg)): 59.1 ng·h/mL
Cmax ([1]; 2.0 mg/m^2 (~0.054 mg/kg)): 14.6 ng/mL
AUC(0-inf) ([1]; 2.8 mg/m^2 (~0.076 mg/kg)): 80.3 ng·h/mL
Cmax ([1]; 2.8 mg/m^2 (~0.076 mg/kg)): 19.9 ng/mL
AUC(0-inf) ([1]; 3.9 mg/m^2 (~0.105 mg/kg)): 81.1 ng·h/mL
Cmax ([1]; 3.9 mg/m^2 (~0.105 mg/kg)): 23 ng/mL
half-life ([1]; s.c., 0.1 mg/m^2 (~0.0022 mg/kg), read-out: T1/2 (converted)): 1.7 h
Tmax ([1]; s.c., 0.1 mg/m^2 (~0.0022 mg/kg), read-out: Tmax): 0.5 h
half-life ([1]; s.c., 0.2 mg/m^2 (~0.0054 mg/kg), read-out: T1/2 (converted)): 3 h
Tmax ([1]; s.c., 0.2 mg/m^2 (~0.0054 mg/kg), read-out: Tmax): 0.8 h
half-life ([1]; s.c., 0.4 mg/m^2 (~0.011 mg/kg), read-out: T1/2 (converted)): 6.6 h
Tmax ([1]; s.c., 0.4 mg/m^2 (~0.011 mg/kg), read-out: Tmax): 0.5 h
half-life ([1]; s.c., 0.8 mg/m^2 (~0.022 mg/kg), read-out: T1/2 (converted)): 5.3 h
Tmax ([1]; s.c., 0.8 mg/m^2 (~0.022 mg/kg), read-out: Tmax): 0.5 h
half-life ([1]; s.c., 1.3 mg/m^2 (~0.035 mg/kg), read-out: T1/2 (converted)): 5.6 h
Tmax ([1]; s.c., 1.3 mg/m^2 (~0.035 mg/kg), read-out: Tmax): 0.5 h
half-life ([1]; s.c., 2.0 mg/m^2 (~0.054 mg/kg), read-out: T1/2 (converted)): 6.7 h
Tmax ([1]; s.c., 2.0 mg/m^2 (~0.054 mg/kg), read-out: Tmax): 0.5 h
half-life ([1]; s.c., 2.8 mg/m^2 (~0.076 mg/kg), read-out: T1/2 (converted)): 5.7 h
Tmax ([1]; s.c., 2.8 mg/m^2 (~0.076 mg/kg), read-out: Tmax): 0.5 h
half-life ([1]; s.c., 3.9 mg/m^2 (~0.105 mg/kg), read-out: T1/2 (converted)): 5.3 h
Tmax ([1]; s.c., 3.9 mg/m^2 (~0.105 mg/kg), read-out: Tmax): 0.5 h
Tmax ([1]; s.c., across cohorts 0.1-3.9 mg/m^2, read-out: mean Tmax): 0.5 to 0.8 h
half-life ([1]; s.c., across cohorts 0.1-3.9 mg/m^2, read-out: mean half-life (t1/2)): 1.7 to 6.7 h
EC50 (TLR8): 70 nM
SMILES: CCCN(CCC)C(=O)C1=Cc2ccc(-c3ccc(C(=O)N4CCCC4)cc3)cc2N=C(N)C1 [VTX-2337, 2-amino-N,N-dipropyl-8-(4-(pyrrolidine-1-carbonyl)phenyl)-3H-benzo[b]azepine-4-carboxamide]
